Measured values taken from patent US4877790A, “Quinazoline derivative, processes for its production, and cerebral dysfunction remedying agent comprising it as active ingredient” (Kanebo Limited, priority 1987, dated 1989).
Where a name gives a salt, the structure may show the parent alone.

Legend:
[1] = tested on: normobaric hypoxia, male mice of the ddY strain; experiment: Anti-hypoxic activity: brain protection against normobaric hypoxia (survival time); assay type: in vivo; details: oral, Table 3
Description: (2) Brain protection against normobaric hydpoxia
Male mice of the ddY strain (body weight 20-25g, 5 per group) were orally administered with the compound of the invention (dihydrochloride) dissolved in a 1% gum arabic solution. One hour after the adminstration, the mouse was put in a transparent plastic container (capacity 27 liters) through which 100% nitrogen was passed at a rate of 80 liters/min. The time elasped until the animal died (the survival time) was measured, and compared with that obtained with the control group (the group to which 1% gum arabic solution was administered).

[2] = tested on: formation of lipid peroxide by autoxidation (brain homogenate); experiment: Lipid peroxide formation inhibiting activity (antioxidant activity), MDA in brain homogenate; assay type: biochemical, rats; details: for Antioxidant activity (percent inhibition of autoxidation): 37° C. 30 minutes, n = 4, mean ± standard error
Description: Lipid peroxide formation inhibiting activity (antioxidant activity):
The effect of the test compound on the formation of lipid peroxide by autoxidation was determined by the amount of malondialdehyde (MDA) formed.
Rats were decapitated, and the cerebrum was taken out and homogenized with 4 ml, per gram of the cerebrum, of 50 mM phosphate saline-buffer (pH 7.4) and centrifuged (2800 rpm, 10 minutes). The supernatant was taken into a 10 ml test tube to obtain a brain homogenate. It was frozen at -70° C. and stored.
The brain homogenate was defrozen, and immediately then, diluted to 10-fold with the aforesaid phosphate saline-buffer. A 2 ml portion of the dilution was taken into a 10 ml test tube cooled with ice, and used to measure its antioxidant activity. Twenty microliters of an aqueous solution of the compound of this invention (dihydrochloride) was added. The amount of MDA immediately after the addition was measured as shown below (MDA0 time). The mixture was incubated at 37° C. for 30 minutes. […] After cooling with ice, the cooled mixture was centrifuged (2800 rpm, 10 minutes). To 1 ml of the supernatant, 0.5 ml of 0.5 % thiobarbituric acid solution dissolved in 50% acetic acid solution was added, and the mixture was heated at 100° C. for 15 minutes. After cooling with ice, the absorbance of the solution at 532 nm was measured, and the amount of MDA formed was determined (MDA test).
As a control, the amount of MDA (MDAcont) was determined as above.
The antioxidant activity of the compound of the invention was expressed in terms of percent inhibition of autoxidation on the brain homogenate. The calculation was based on the following equation. [formula]

[3] = tested on: carbon dioxide-induced amnesia, male mice of the ddY strain; experiment: Anti-CO2-induced amnesia activity (one-trial passive avoidance response); assay type: in vivo; details: oral, Table 1
Description: Anti-CO2 -induced amnesia activity (the activity of remedying hypoxia-induced deficits in learning and memory):
Male mice of the ddY strain (body weight 20-30 g, 30 per group) were used. Anti-CO2 -induced amnesia activity was determined by using one-trial passive avoidance response as an index.
The experimental device consisted of two compartments, one illuminated and the other dark, with a guillotine door in the boundary of the two compartments permitting free passage of the mice through it.
In an acquisition trial, a mouse was placed in the illuminated compartment and allowed to enter the dark one. As soon as the mouse entered the dark compartment, the door was shut, and an electrical shock (0.5 mA, 0.2 sec.) was applied through the grid floor. Thus, the mouse was caused to learn that it receives an electric shock upon entering the dark room. In a retrieval trial, the mouse was again placed in the illuminated compartment 24 hours after the acquisition trial, and the time elapsed until it entered the dark compartment (response latency) was measured to an extent of 300 seconds at the longest. (One-trial passive avoidance response). […]

[4] = tested on: deficit of memory induced by scopolamine hydrobromide, male mice of the ddY strain; experiment: Anti-scopolamine-induced amnesia activity (one-trial passive avoidance response); assay type: in vivo; details: i.p. and p.o., Table 5
Description: Anti-scopolamine-induced amnesia activity:
Male mice of the ddY strain (body weight 20-25g, 20 per group) were used, and the activity of the test compound on deficit of memory induced by scopolamine hydrobromide (a muscarinic acetylcholine receptor antagonist) was examined using one-trial passive avoidance response as an index.
Using the same experimental device as in Test Example 1, the same acquisition trial and retrieval trial as in Test Example 1 were carried out (one-trial passive avoidance response.)
Scopolamine hydrobromide (1 mg/kg) was intraperitoneally (i.p.) administered to the animals 20 minutes before the acquisition trial. The compound of the invention (dihydrochloride) was dissolved in 1 % gum arabic solution, and intraperitoneally adminstered immediately after the acquisition trial, and orally (p.o.) administered 60 minutes before the acquisition trial.
A 1% solution of gum arabic was administered to the control group.

[5] = tested on: complete ischemia by decapitation, male mice of the ddY strain; experiment: Anti-hypoxic activity: brain protection against complete ischemia by decapitation (gasping persistent time); assay type: in vivo; details: oral, Table 2
Description: (1) Brain protection against complete ischemia by decapitation:
Male mice of the ddY strain (body weight 20-25 g, 5 per group) were orally given the compound of the invention (dihydrochloride) dissolved in 1% gum arabic solution. One hour later, the mice were decapitated, and the time elapsed until a gasping-like mouth opening movement appearing after decapitation ceased (gasping persistent time) was measured, and compared with that obtained with the control group (the group to which 1% gum arabic solution was administered.

C=CCN1CCN(c2nc(OCCCCC)c3ccccc3n2)CC1 [Compound of the invention (2HCl), 2-(4-allyl-l-piperazinyl)-4-pentyloxyquinazoline dihydrochloride]
activity of prolonging the survival time (in words) [1]: showed a significant activity of prolonging the survival time | Antioxidant activity (percent inhibition of autoxidation) ([2]; 10 μM): 6.4 ± 7.7% | Antioxidant activity (percent inhibition of autoxidation) ([2]; 30 μM): 27.1 ± 6.8% | Antioxidant activity (percent inhibition of autoxidation) ([2]; 100 μM): 77.9 ± 3.1% | Antioxidant activity (percent inhibition of autoxidation) ([2]; 300 μM): 93.4 ± 2.2% | activity of inhibiting formation of lipid peroxide (antioxidant activity) (in words) ([2]; Table 4): showed the activity of inhibiting formation of lipid peroxide | anti-carbon dioxide induced amnesia activity (in words) [3]: showed a significant anti-carbon dioxide induced amnesia activity | anti-scopolamine-induced amnesia activity (in words) [4]: showed a significant anti-scopolamine-induced amnesia activity | activity of prolonging the gasping persistent time (in words) [5]: showed a significant activity of prolonging the gasping persistent time
